Laboratory results taken from patent publication US9884065B2, “Inhibiting activity of senescent cells using a glucocorticoid” (Buck Institute for Research on Aging, priority 2011, dated 2018).

Experiments:
[1] = molecular target: T1, glucocorticoid receptor (GR) (Homo sapiens, UniProt P04150); test: Immunostaining for GR localization in HCA2 cells; type: cell-based; settings: senescent HCA2 cells; 500 nM corticosterone or 100 nM cortisol
T1 construct: endogenous in cells; host or cells: HCA2 human fibroblasts
T1 sequence (P04150 1-777): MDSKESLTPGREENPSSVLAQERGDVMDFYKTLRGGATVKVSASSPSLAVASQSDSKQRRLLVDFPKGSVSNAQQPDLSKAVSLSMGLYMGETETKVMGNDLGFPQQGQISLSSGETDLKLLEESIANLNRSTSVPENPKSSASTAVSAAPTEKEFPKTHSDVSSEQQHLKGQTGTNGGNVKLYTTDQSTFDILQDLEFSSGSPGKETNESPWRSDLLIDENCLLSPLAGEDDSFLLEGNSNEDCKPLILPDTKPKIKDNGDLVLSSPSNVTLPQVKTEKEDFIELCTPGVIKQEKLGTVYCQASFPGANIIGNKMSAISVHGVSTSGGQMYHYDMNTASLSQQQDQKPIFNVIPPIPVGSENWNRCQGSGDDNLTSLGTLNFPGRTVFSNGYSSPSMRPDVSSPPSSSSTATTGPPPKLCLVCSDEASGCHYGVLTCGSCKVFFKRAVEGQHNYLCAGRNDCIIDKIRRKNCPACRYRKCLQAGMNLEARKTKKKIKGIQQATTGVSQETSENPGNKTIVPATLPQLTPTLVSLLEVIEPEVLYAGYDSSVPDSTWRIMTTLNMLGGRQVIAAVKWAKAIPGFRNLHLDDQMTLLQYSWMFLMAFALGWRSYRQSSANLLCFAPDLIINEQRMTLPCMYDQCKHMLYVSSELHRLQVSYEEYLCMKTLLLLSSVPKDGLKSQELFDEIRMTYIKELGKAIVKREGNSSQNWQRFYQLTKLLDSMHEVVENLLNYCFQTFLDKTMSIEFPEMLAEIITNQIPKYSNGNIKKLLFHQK
Method: Cells were cultured in 8-well chamber slides, fixed in 4% formaldehyde (Sigma) for 10 min at 4° C. and permeabilized in PBS-0.5% Triton for 10 min in 4° C.

[2] = tested on: T47D human breast cancer cells; test: Invasion assay: conditioned media from HCA2 fibroblasts stimulating T47D invasion of basement membrane; type: cell-based; settings: HCA2 fibroblasts treated with corticosterone or cortisol for 10 d
Method: T47D human breast cancer cells (120,000 cells/well) were plated atop a layer of Matrigel in the upper chambers of Transwells (BD Biosciences). The lower chambers contained conditioned media from pre-senescent or senescent HCA2 fibroblasts treated with corticosterone or cortisol for 10 d. After 18 h, cells that migrated to the underside of the upper chamber filter were stained and counted, as described (Coppe et al., 2008, PLoS Biol. 6:2853-2868; Coppe et al., 2010, PLoS ONE 5:e9188).

[3] = tested on: IL-6; test: IL-6 ELISA of conditioned media from X-irradiated senescent HCA2 fibroblasts; type: cell-based, human; settings: for IL-6 secretion, varying concentrations: added immediately after irradiation, 6 days
Method: To validate glucocorticoids as SASP regulators, they were added within 15 min after irradiation (unless otherwise indicated). For cells induced to senesce by MKK6 or RAS overexpression, glucocorticoid treatment started 16 hours after infection. Glucocorticoids were re-added in fresh media every other day. Six days after irradiation or selection, cells were given serum-free DMEM with or without glucocorticoid for 24 hours; the conditioned media were collected and frozen for ELISAs.
Conditioned media were filtered and stored at −80° C. Cell numbers were determined in every experiment. ELISAs were performed using kits and procedures from PerkinElmer (IL-6 AL223F). Data were normalized and expressed as pg/ml/cell/24 h.
To confirm the ability of corticosterone to suppress senescence-associated IL-6 secretion, fresh HCA2 fibroblast cultures were prepared, and senescence was induced by X-irradiation (10 Gy). Under these conditions, cells undergo growth arrest within 24-48 hours, but require 4-5 days before SASP components are detected in the medium (Coppe et al., 2008, PLoS Biol. 6:2853-2868; Rodier et al., 2009, Nature Cell Biol. 11:973-979; Coppe et al., 2010, PLoS ONE 5:e9188; Freund et al., 2011, EMBO J. 30:1536-1548). Varying concentrations of corticosterone were added immediately after irradiation, and the cells were maintained in the drug for 6 days. On the 6th day, the cells were incubated in serum-free medium with or without corticosterone, the conditioned medium was collected 24 h later, and the medium was assayed for IL-6 by ELISA. […] The ability of corticosterone to suppress IL-6 secretion by senescent cells was not peculiar to HCA2 cells.

[4] = molecular target: T2, mineralocorticoid receptor (Homo sapiens, UniProt P08235); test: Immunostaining for mineralocorticoid receptor localization in HCA2 cells; settings: 500 nM corticosterone or 100 nM cortisol, 1 or 7 days
T2 sequence (P08235 1-984): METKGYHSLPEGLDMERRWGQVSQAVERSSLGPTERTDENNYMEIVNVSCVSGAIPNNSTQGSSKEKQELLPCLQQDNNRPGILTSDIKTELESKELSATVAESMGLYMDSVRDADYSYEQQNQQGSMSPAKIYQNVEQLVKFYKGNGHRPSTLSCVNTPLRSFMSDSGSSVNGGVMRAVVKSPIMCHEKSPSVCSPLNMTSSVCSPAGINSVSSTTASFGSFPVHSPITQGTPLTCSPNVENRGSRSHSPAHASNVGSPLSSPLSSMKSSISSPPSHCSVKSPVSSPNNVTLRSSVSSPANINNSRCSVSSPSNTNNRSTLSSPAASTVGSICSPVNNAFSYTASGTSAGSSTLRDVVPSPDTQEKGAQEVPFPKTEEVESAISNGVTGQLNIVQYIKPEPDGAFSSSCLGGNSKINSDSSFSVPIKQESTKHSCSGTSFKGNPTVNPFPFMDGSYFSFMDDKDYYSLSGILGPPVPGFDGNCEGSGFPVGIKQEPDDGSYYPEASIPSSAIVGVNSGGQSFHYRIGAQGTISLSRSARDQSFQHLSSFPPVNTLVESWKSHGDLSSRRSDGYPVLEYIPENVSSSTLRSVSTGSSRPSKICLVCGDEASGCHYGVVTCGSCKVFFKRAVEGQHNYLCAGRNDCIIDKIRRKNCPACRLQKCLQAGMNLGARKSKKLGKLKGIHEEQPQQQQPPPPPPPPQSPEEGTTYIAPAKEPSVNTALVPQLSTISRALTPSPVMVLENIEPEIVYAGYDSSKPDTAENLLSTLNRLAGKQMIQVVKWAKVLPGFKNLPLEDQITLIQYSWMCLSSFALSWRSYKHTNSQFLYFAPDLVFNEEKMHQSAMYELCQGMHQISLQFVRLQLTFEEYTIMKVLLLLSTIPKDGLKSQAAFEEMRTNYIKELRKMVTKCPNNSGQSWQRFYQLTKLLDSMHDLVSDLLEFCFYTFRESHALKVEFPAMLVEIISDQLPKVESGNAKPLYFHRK

Compound | GR localization [1] | ability of senescent conditioned media to stimulate T47D invasiveness [2] | reduction of IL-6 secretion ([3]; 20 nM corticosterone) | maximal suppression of IL-6 secretion ([3]; 500 nM corticosterone) | IL-6 secretion, continuous exposure ([3]; 500 nM, continuous exposure for 7 days after irradiation) | IL-6 secretion, short exposure ([3]; 500 nM, pretreatment before X-irradiation, or only 24 hours immediately after irradiation or after establishment of the SASP (7 days)) | IL-6 secretion, varying concentrations [3] | mineralocorticoid receptor localization [4] | reduction of senescence-associated IL-6 secretion ([3]; 100 nM cortisol) | IC50 ([3]; Homo sapiens, HCA2, sub-nM concentrations, read-out: concentration reducing senescence-associated IL-6 secretion by 50%)
C[C@]12C[C@H](O)[C@H]3[C@@H](CCC4=CC(=O)CC[C@@]43C)[C@@H]1CC[C@@H]2C(=O)CO [corticosterone] | translocated into the nucleus | near-presenescent levels | approximately 50% | > 90% | strongly suppressed IL-6 secretion | had no effect on IL-6 secretion | decreased IL-6 secretion in a dose-dependent manner | remained cytoplasmic | – | –
C[C@]12CCC(=O)C=C1CC[C@@H]1[C@@H]2[C@@H](O)C[C@@]2(C)[C@H]1CC[C@]2(O)C(=O)CO [cortisol] | translocated into the nucleus | near-presenescent levels | – | – | – | – | decreased IL-6 secretion in a dose-dependent manner, and was more potent than corticosterone | remained cytoplasmic | > 90% | 0.16 to 0.8 nM
